Reference: patent US6337334B1, “Pyrimidine derivatives” (Kowa Co., Ltd., priority 1994, dated 2002)
Where a name gives a salt, the structure may show the parent alone.

How the values were obtained:
ETA receptor = target: T1, ETA receptor (Sus scrofa, UniProt Q29010); test: Endothelin binding inhibition experiment, 125I-endothelin-1 binding assay, ETA receptor membrane samples from smooth muscles of porcine thoracic aorta; details: 125I-endothelin-1 2×10^−11 M, porcine thoracic aorta membranes, 2 hours at 25° C.
T1 construct: Porcine thoracic aorta which was separated from the fatty tissue and then was removed endothelium with gauze was minced, and then homogenized; from tissue; host or cells: porcine thoracic aorta smooth muscle membranes
T1 sequence (Q29010 21-427): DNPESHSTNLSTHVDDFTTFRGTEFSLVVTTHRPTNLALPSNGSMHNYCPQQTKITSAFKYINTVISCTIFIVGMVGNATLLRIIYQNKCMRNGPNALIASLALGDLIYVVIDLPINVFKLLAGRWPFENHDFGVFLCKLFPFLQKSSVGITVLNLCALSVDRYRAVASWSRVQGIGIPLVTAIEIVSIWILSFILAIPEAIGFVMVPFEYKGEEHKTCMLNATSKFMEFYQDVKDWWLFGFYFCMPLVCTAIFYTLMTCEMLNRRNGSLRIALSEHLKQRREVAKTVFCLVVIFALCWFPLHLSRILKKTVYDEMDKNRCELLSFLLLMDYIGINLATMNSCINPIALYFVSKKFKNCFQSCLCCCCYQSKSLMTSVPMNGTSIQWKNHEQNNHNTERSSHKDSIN
Method: (§1) Endothelin Binding Inhibition Experiment
Preparation of receptor membrane samples (ETA) from smooth muscles of porcine thoracic aorta:
Porcine thoracic aorta which was separated from the fatty tissue and then was removed endothelium with gauze was minced, and then homogenized in three times the volume of Tris-HCl buffer (pH 7.4) (buffer A) containing 0.25 M sucrose, 3 mM ethylenediaminetetraacetic acid, 5 μg/ml of aprotinin, 10 μg/ml of pepstatin A, 10 μg/ml of leupeptin, and 0.1 μM p-amidinophenyl-methanesulfonyl fluoride. After centrifugation for 30 minutes at 1,000×g, the supernatant was further centrifuged for 30 minutes at 100,000×g. The pellets were suspended in buffer A, and recentrifuged for 30 minutes at 100,000×g. The pellets were suspended in buffer A and the suspension was stored at −80° C.
^125I-Endothelin-1 Binding Assay
The thus-obtained membrane sample (1 μl) was incubated together with ^125I-endothelin-1 (2×10^−11 M) and various concentrations of the compounds, for 2 hours at 25° C., in 250 μl in total volume of 50 mM Tris-HCl buffer (pH 7.4) containing 0.5% bovine serum albumin. The incubated mixture was filtered by use of an HVPP filters (pore size 0.45 μm, product of Milipore). The filters were washed with cold buffer A four times, and then measured with a gamma-ray counter (Aroka Autowell Gamma System ARC-251). Preparation of receptor membrane sample (ETB) from rat brain and assay of ^125I endothelin-1: […]

ETB receptor = target: T2, ETB receptor (Rattus norvegicus, UniProt P21451); test: Endothelin binding inhibition experiment, 125I-endothelin-1 binding assay, ETB receptor membrane sample from rat brain; details: 125I-endothelin-1, rat brain membranes
T2 construct: Rat brain tissue was minced, and a crude receptor membrane sample was prepared; from tissue; host or cells: rat brain crude membranes
T2 sequence (P21451 27-442): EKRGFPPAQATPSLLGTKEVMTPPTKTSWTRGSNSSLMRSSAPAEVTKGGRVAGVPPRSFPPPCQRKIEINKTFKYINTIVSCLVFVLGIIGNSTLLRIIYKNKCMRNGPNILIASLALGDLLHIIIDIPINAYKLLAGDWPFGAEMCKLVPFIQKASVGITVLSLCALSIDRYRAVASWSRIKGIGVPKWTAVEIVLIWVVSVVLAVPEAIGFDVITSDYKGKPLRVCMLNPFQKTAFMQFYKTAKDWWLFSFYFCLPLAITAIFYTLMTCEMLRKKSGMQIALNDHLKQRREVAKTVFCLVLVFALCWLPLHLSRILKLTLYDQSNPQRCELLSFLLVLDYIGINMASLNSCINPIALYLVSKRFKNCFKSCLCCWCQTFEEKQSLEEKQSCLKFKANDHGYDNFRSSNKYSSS
Method: as §1
The thus-obtained membrane sample (1 μl) was incubated together with ^125I-endothelin-1 (2×10^−11 M) and various concentrations of the compounds, for 2 hours at 25° C., in 250 μl in total volume of 50 mM Tris-HCl buffer (pH 7.4) containing 0.5% bovine serum albumin. The incubated mixture was filtered by use of an HVPP filters (pore size 0.45 μm, product of Milipore). The filters were washed with cold buffer A four times, and then measured with a gamma-ray counter (Aroka Autowell Gamma System ARC-251). Preparation of receptor membrane sample (ETB) from rat brain and assay of ^125I endothelin-1:
Rat brain tissue was minced, and a crude receptor membrane sample was prepared in a manner similar to that used in the aforementioned case of porcine thoracic aorta. Also, ^125I-endothelin-1 assay was performed in the same manner as described above.

Molecule	IC50 (ETA receptor) [µM]	IC50 (ETB receptor) [µM]	melting point [°C]
COc1ccccc1NC(=O)CCCOc1nc(-c2ncccn2)nc(NS(=O)(=O)c2ccc(C(C)(C)C)cc2)c1Oc1ccccc1OC [Compound No. 29, N-(2-methoxyphenyl)-4-[6-(4-t-butylphenylsulfonylamino)-5-(2-methoxyphenoxy)-2-(2-pyrimidinyl)-4-pyrimidinyloxy]-butyramide]	3.1	0.03	–
COc1ccccc1Oc1c(NS(=O)(=O)c2ccc(C(C)(C)C)cc2)nc(-c2ncccn2)nc1OCC(=O)NCc1ccccc1 [Compound No. 15, N-benzyl-[6-(4-t-butylphenylsulfonylamino)-5-(2-methoxyphenoxy)-2-(2-pyrimidinyl)-4-pyrimidinyloxy]acetamide]	3.2	0.016	–
COc1ccccc1Oc1c(NS(=O)(=O)c2ccc(C(C)(C)C)cc2)nc(-c2ncccn2)nc1OCC(=O)Oc1cccc(Cl)c1 [Compound No. 12, 3-chlorophenyl [6-(4-t-butylphenylsulfonylamino)-5-(2-methoxyphenoxy)-2-(2-pyrimidinyl)-4-pyrimidinyloxy]acetate]	0.32	0.82	–
COc1ccccc1Oc1c(NS(=O)(=O)c2ccc(C(C)(C)C)cc2)nc(-c2ncccn2)nc1OCCC(=O)Nc1ccccc1 (as salt: sodium) [Compound No. 18, N-phenyl-3-[6-(4-t-butylphenylsulfonylamino)-5-(2-methoxyphenoxy)-2-(2-pyrimidinyl)-4-pyrimidinyloxy]-propionamide]	–	–	162 to 163
COc1ccccc1Oc1c(NS(=O)(=O)c2ccc(C(C)(C)C)cc2)nc(-c2ncccn2)nc1OCCCC(=O)Nc1ccccc1 [Compound No. 25, N-phenyl-4-[6-(4-t-butylphenylsulfonylamino)-5-(2-methoxyphenoxy)-2-(2-pyrimidinyl)-4-pyrimidinyloxy]butyramide]	1.9	0.037	–
N-(2-chlorophenethyl)-4-[6-(4-t-butylphenylsulfonylamino)-5-(2-methoxyphenoxy)-2-(2-pyrimidinyl)-4-pyrimidinyloxy]-butylamide [Compound No. 38]	16.9	0.019	–
CCOC(=O)CCOc1nc(-c2ncccn2)nc(NS(=O)(=O)c2ccc(C(C)(C)C)cc2)c1Oc1ccccc1OC [Compound No. 9, ethyl 3-[6-(4-t-butylphenylsulfonylamino)-5-(2-methoxyphenoxy)-2-(2-pyrimidinyl)-4-pyrimidinyloxy]propionate]	0.72	2.9	–
COc1ccccc1Oc1c(NS(=O)(=O)c2ccc(C(C)(C)C)cc2)nc(-c2ncccn2)nc1OCC(=O)OCc1ccccc1 [Compound No. 10, benzyl [6-(4-t-butylphenylsulfonylamino)-5-(2-methoxyphenoxy)-2-(2-pyrimidinyl)-4-pyrimidinyloxy]acetate]	0.51	0.65	–
COc1ccccc1CNC(=O)CCOc1nc(-c2ncccn2)nc(NS(=O)(=O)c2ccc(C(C)(C)C)cc2)c1Oc1ccccc1OC [Compound No. 34, N-(2-methoxybenzyl)-3-[6-(4-t-butylphenylsulfonylamino)-5-(2-methoxyphenoxy)-2-(2-pyrimidinyl)-4-pyrimidinyloxy]propionamide]	0.39	0.22	–
COc1ccccc1NC(=O)CCOc1nc(-c2ncccn2)nc(NS(=O)(=O)c2ccc(C(C)(C)C)cc2)c1Oc1ccccc1OC (as salt: sodium) [Compound No. 48, N-(2-methoxyphenyl)-3-[6-(4-t-butylphenylsulfonylamino)-5-(2-methoxyphenoxy)-2-(2-pyrimidinyl)-4-pyrimidinyloxy]propionamide]	–	–	120 to 122
COc1ccccc1CNC(=O)CCOc1nc(-c2ncccn2)nc(NS(=O)(=O)c2ccc(C(C)(C)C)cc2)c1Oc1ccccc1OC (as salt: sodium) [Compound No. 34, N-(2-methoxybenzyl)-3-[6-(4-t-butylphenylsulfonylamino)-5-(2-methoxyphenoxy)-2-(2-pyrimidinyl)-4-pyrimidinyloxy]propionamide]	–	–	138 to 139
COc1ccccc1Oc1c(NS(=O)(=O)c2ccc(C(C)(C)C)cc2)nc(-c2ncccn2)nc1OCC(=O)O [Compound No. 2, [6-(4-t-butylphenyl-sulfonylamino)-5-(2-methoxyphenoxy)-2-(2-pyrimidinyl)-4-pyrimidinyloxy]acetic acid]	9.4	0.8	–
COc1ccccc1NC(=O)CCOc1nc(-c2ncccn2)nc(NS(=O)(=O)c2ccc(C(C)(C)C)cc2)c1Oc1ccccc1OC [Compound No. 48, N-(2-methoxyphenyl)-3-[6-(4-t-butylphenylsulfonylamino)-5-(2-methoxyphenoxy)-2-(2-pyrimidinyl)-4-pyrimidinyloxy]propionamide]	0.16	0.00075	–
COc1ccccc1Oc1c(NS(=O)(=O)c2ccc(C(C)(C)C)cc2)nc(-c2ncccn2)nc1OCCC(=O)Nc1ccccn1 [Compound No. 92, N-(2-pyridyl)-3-[6-(4-t-butylphenylsulfonylamino)-5-(2-methoxyphenoxy)-2-(2-pyrimidinyl)-4-pyrimidinyloxy]-propionamide]	0.0095	0.1	–
CCCCCNC(=O)CCOc1nc(-c2ncccn2)nc(NS(=O)(=O)c2ccc(C(C)(C)C)cc2)c1Oc1ccccc1OC (as salt: sodium) [Compound No. 43, N-(n-pentyl)-3-[6-(4-t-butylphenylsulfonylamino)-5-(2-methoxyphenoxy)-2-(2-pyrimidinyl)-4-pyrimidinyloxy]-propionamide]	–	–	142 to 144
COc1ccccc1Oc1c(NS(=O)(=O)c2ccc(C(C)(C)C)cc2)nc(-c2ncccn2)nc1OCCC(=O)Nc1ccccc1 [Compound No. 18, N-phenyl-3-[6-(4-t-butylphenylsulfonylamino)-5-(2-methoxyphenoxy)-2-(2-pyrimidinyl)-4-pyrimidinyloxy]-propionamide]	0.15	0.023	–
CCNC(=O)CCOc1nc(-c2ncccn2)nc(NS(=O)(=O)c2ccc(C(C)(C)C)cc2)c1Oc1ccccc1OC (as salt: sodium) [Compound No. 49, N-ethyl-3-[6-(4-t-butylphenylsulfonylamino)-5-(2-methoxyphenoxy)-2-(2-pyrimidinyl)-4-pyrimidinyloxy]-propionamide]	–	–	117 to 120
COc1ccccc1Oc1c(NS(=O)(=O)c2ccc(C(C)(C)C)cc2)nc(-c2ncccn2)nc1OCCC(=O)NCc1ccccc1 [Compound No. 14, N-benzyl-3-[6-(4-t-butylphenylsulfonylamino)-5-(2-methoxyphenoxy)-2-(2-pyrimidinyl)-4-pyrimidinyloxy]-propionamide]	0.82	0.0028	–
COc1ccccc1Oc1c(NS(=O)(=O)c2ccc(C(C)(C)C)cc2)nc(-c2ncccn2)nc1OCCC(=O)Nc1ccccc1C(C)C [Compound No. 53, N-(2-isopropylphenyl)-3-[6-(4-t-butylphenylsulfonylamino)-5-(2-methoxyphenoxy)-2-(2-pyrimidinyl)-4-pyrimidinyloxy]propionamide]	0.098	0.00082	–
